Structures can show the parent of a compound that is named as a salt.
Target: T1, human αVβ6 (Homo sapiens, UniProt P06756+P18564)
T1 construct: purchased R & D systems 3817-AV
Experiment: human αVβ6 HTRF binding assay
Settings: alternatively SPA-based assay
Experimental: All binding assays used the HTRF (homogeneous time resolved fluorescence) technology from Cisbio International, therefore all assays are described as HTRF binding assays. The assay results for the Examples are listed above together with the characterization data. The HTRF binding assays are established for the following integrins: human αVβ6, human αVβ1, human αVβ3, human αVβ5, and human αVβ8. All assays used the following assay buffer: 20 mM Tris, pH 7.4, 1 mM MgCl2, 1 mM MnCl2, 0.01% Tween 20, and 0.01% BSA. Alternatively, a SPA-based assay was used for evaluation of receptor binding.
The following describes the components and a representative procedure for the human αVβ6 HTRF binding assay: Recombinant human αVβ6 Integrin (R & D systems, 3817-AV) was biotinylated. Biotinylated human αVβ6 Integrin was added to assay vessel at a final concentration of 1.25 nM. FITC-conjugated fibronectin (Cytoskeleton, FNR02) was then added at the final concentration of 5 nM. The mixture was centrifuged at 600 rpm for three minutes using Thermo Fisher Heraeus Multifuge X3 centrifuge and then incubated at RT for an hour. Streptavidin Terbium (Cisbio international 610STLB) was then added at the final concentration of 0.625 nM. The resulting mixture was centrifuged at 600 rpm for three minutes using Thermo Fisher Heraeus Multifuge X3 centrifuge and then incubated at room temperature overnight in dark before reading HTRF signals.
The SPA-based assay was carried out according to the protocol and procedures similar to the ones described in the following reference with appropriate modifications to agents and ligands which are readily understood by one skilled in the art: Pachter J A, Zhang R, Mayer-Ezell R., “Scintillation proximity assay to measure binding of soluble fibronectin to antibody-captured αVβ1 integrin” Anal Biochem. 1995 Sep. 1; 230(1):101-7.

T1 sequence (P06756 31-992 limits assumed): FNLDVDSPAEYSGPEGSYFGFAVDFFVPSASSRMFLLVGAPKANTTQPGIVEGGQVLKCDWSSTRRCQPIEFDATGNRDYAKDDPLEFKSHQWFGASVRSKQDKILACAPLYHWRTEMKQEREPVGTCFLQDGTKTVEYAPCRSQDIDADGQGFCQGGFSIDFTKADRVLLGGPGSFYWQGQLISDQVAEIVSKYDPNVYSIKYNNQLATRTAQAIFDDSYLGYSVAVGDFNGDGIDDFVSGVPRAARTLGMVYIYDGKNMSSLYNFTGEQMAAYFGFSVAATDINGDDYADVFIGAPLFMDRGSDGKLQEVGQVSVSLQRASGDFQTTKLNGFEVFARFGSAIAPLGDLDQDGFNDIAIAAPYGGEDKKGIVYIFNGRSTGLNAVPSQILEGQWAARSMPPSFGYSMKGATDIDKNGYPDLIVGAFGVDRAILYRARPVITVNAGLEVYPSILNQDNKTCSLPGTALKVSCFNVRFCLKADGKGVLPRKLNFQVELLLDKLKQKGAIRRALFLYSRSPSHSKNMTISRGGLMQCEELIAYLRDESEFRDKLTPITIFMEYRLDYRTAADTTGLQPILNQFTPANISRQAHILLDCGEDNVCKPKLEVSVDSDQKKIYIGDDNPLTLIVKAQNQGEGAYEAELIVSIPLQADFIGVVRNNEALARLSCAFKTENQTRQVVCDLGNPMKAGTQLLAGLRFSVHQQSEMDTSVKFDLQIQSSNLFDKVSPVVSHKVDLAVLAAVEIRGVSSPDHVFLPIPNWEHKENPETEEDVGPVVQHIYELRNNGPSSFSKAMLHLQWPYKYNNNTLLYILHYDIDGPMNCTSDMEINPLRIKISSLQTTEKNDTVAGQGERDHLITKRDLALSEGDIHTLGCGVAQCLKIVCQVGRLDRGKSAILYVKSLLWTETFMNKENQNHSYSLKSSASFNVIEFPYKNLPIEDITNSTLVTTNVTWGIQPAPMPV
T1 sequence (P18564 22-707 limits assumed): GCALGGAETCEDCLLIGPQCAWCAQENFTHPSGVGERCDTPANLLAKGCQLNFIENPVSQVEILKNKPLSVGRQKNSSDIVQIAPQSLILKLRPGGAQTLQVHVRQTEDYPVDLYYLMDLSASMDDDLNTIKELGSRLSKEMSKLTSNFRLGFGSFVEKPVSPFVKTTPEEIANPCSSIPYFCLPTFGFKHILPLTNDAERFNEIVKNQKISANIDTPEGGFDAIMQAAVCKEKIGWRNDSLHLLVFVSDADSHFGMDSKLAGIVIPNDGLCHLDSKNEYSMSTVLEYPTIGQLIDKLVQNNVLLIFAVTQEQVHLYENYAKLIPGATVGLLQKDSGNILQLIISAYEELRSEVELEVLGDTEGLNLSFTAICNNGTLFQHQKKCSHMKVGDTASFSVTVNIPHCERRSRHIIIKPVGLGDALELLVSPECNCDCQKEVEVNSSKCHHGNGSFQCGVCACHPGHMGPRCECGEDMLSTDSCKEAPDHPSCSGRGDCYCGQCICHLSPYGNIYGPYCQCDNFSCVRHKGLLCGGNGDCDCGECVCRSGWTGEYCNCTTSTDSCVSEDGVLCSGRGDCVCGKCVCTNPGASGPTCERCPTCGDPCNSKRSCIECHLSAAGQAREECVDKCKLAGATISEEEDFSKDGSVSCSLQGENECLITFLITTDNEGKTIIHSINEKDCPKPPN

| Molecule | IC50 |
| --- | --- |
| CC(=O)N(CCCc1ccc2c(n1)NCCC2)C1CC(C(CC(=O)O)c2ccc3nccnc3c2)C1 (stereo not shown) [Example 150] | 6.7 nM |
| Cc1ncc(C(CC(=O)O)N2CC(COCCc3ccc4c(n3)NCCC4)C2)cn1 (stereo not shown) [Example 127, 3-(2-methylpyrimidin-5-yl)-3-(3-((2-(5,6,7,8-tetrahydro-1,8-naphthyridin-2-yl)ethoxy)methyl)azetidin-1-yl)propanoic acid, 2 TFA] | 7.9 nM |
| (S)-Ethyl 3-(6-methoxypyridin-3-yl)-3-(1-methyl-3-(2-(5,6,7,8-tetrahydro-1,8-naphthyridin-2-yl)ethyl)cyclobutanecarboxamido)propanoate [Example 15] | 5.2 nM |
| COc1ncc([C@H](CC(=O)O)N2CC(CCCCc3ccc4c(n3)NCCC4)C2=O)cn1 (stereo partly shown) [Example 70] | 5.8 nM |
| N[C@@H](CNC(=O)C1CN(CCc2ccc3c(n2)NCCC3)C1)C(=O)O [Example 55] | 20 nM |
| Cc1ncc([C@H](CC(=O)O)N2CC(OCCCc3ccc4c(n3)NCCC4)C2)cn1 [example 131, (S)-3-(2-methylpyrimidin-5-yl)-3-(3-(3-(5,6,7,8-tetrahydro-1,8-naphthyridin-2-yl)propoxy)azetidin-1-yl)propanoic acid] | 7.5 nM |
| CC1(CCCCc2ccc3c(n2)NCCC3)CN([C@@H](CC(=O)O)c2cnc3ccccc3c2)C1 [Example 159] | 1.5 nM |
| O=C(O)CCC1CC2(C1)CC(CCc1ccc3c(n1)NCCC3)C2 (stereo not shown) [Example 124] | 93 nM |
| Cc1cc(C)n(-c2cccc(C(CC(=O)O)N3CC4(CC(CCc5ccc6c(n5)NCCC6)C4)C3)c2)n1 (stereo not shown) [Example 207] | 2.8 nM |
| O=C(N[C@@H](CNC(=O)[C@H]1C[C@@H](Cc2ccc3c(n2)NCCC3)C1)C(=O)O)OCc1ccccc1 [Example 196, (S)-2-(((Benzyloxy)carbonyl)amino)-3-(cis-3-((5,6,7,8-tetrahydro-1,8-naphthyridin-2-yl)methyl)cyclobutane-1-carboxamido)propanoic acid] | 5.1 nM |
| CN(C1CC2(C1)CN(CCc1ccc3c(n1)NCCC3)C2)[C@@H](CC(=O)O)c1cc(Cl)cc(Cl)c1 [Example 20, (S)-3-(3,5-Dichlorophenyl)-3-(methyl(2-(2-(5,6,7,8-tetrahydro-1,8-naphthyridin-2-yl)ethyl)-2-azaspiro[3.3]heptan-6-yl)amino)propanoic acid] | 16 nM |
| O=C(O)CC(NC(=O)[C@H]1C[C@H](CCc2ccc3c(n2)NCCC3)C1)c1cnc(C(F)(F)F)nc1 (single isomer, unassigned) [Example 194, 3-(trans-3-(2-(5,6,7,8-Tetrahydro-1,8-naphthyridin-2-yl)ethyl)cyclobutane-1-carboxamido)-3-(2-(trifluoromethyl)pyrimidin-5-yl)propanoic acid] | 21 nM |
| O=C(O)[C@H](CN1CC(CCCc2ccc3c(n2)NCCC3)C1=O)NS(=O)(=O)c1ccc(F)cc1 (single isomer, unassigned) [Example 188] | 3.34 nM |
| O=C(O)C[C@H](NC(=O)C1CC2(C1)CN(C(=O)CCc1ccc3c(n1)NCCC3)C2)c1cc(Cl)cc(Cl)c1 [Example 1, (S)-3-(3,5-Dichlorophenyl)-3-(2-(3-(5,6,7,8-tetrahydro-1,8-naphthyridin-2-yl)propanoyl)-2-azaspiro[3.3]heptane-6-carboxamido)propanoic acid, TFA] | 420 nM |
| COc1ccc([C@H](CC(=O)O)N2CC(c3ccc(-c4ccc5c(n4)NCCC5)cc3)C2=O)cn1 (single isomer, unassigned) [Example 184] | 4 nM |
| CCOC(=O)C[C@H](NC(=O)C1CC2(C1)CN(CCc1ccc3c(n1)NCCC3)C2)c1cc(Cl)cc(Cl)c1 [Example 49] | 480 nM |
| Cc1cc(C)c(S(=O)(=O)N[C@@H](CN2CC(CCCc3ccc4c(n3)NCCC4)C2=O)C(=O)O)c(C)c1 (single isomer, unassigned) [Example 186] | 0.61 nM |
| O=C(N[C@@H](CC(=O)N1CC2(CC(CCc3ccc4c(n3)NCCC4)C2)C1)C(=O)O)OCc1ccccc1 [Example 61] | 20 nM |
| O=C(O)C[C@@H](c1cc(F)cc(F)c1)N1CC(F)(CCCCc2ccc3c(n2)NCCC3)C1 [Example 162, (S)-3-(3,5-difluorophenyl)-3-(3-fluoro-3-(4-(5,6,7,8-tetrahydro-1,8-naphthyridin-2-yl)butyl)azetidin-1-yl)propanoic acid] | 2 nM |
| CCCOC(=O)N[C@@H](CNC(=O)[C@H]1C[C@@H](Cc2ccc3c(n2)NCCC3)C1)C(=O)O [Example 198] | 1.9 nM |
| O=C(O)CC(c1ccc2nccnc2c1)C1CC(NCCCc2ccc3c(n2)NCCC3)C1 (stereo not shown) [Example 148] | 6.5 nM |

Second part, the molecule after the results:

| IC50 | Molecule |
| --- | --- |
| 68 nM | O=C(N[C@@H](CC(=O)N1CC(CCc2ccc3c(n2)NCCC3)C1)C(=O)O)OCC1CCC1 [Example 174, (S)-2-(((cyclobutylmethoxy)carbonyl)amino)-4-oxo-4-(3-(2-(5,6,7,8-tetrahydro-1,8-naphthyridin-2-yl)ethyl)azetidin-1-yl)butanoic acid] |
| 64 nM | O=C(N[C@@H](CC(=O)N1CC(CCc2ccc3c(n2)NCCC3)C1)C(=O)O)OCc1ccccc1 [Example 7, (S)-2-(((Benzyloxy)carbonyl)amino)-4-oxo-4-(3-(2-(5,6,7,8-tetrahydro-1,8-naphthyridin-2-yl)ethyl)azetidin-1-yl)butanoic acid] |
| 5.9 nM | Cc1ncc([C@H](CC(=O)O)NC(=O)N2CC(CCc3ccc4c(n3)NCCC4)C2)cn1 [Example 120] |
| 26 nM | COc1ccc(C(CC(=O)O)C2CC(CCCCc3ccc4c(n3)NCCC4)C2)cn1 (single isomer, unassigned; diastereomer a) [Example 139, 3-(6-Methoxypyridin-3-yl)-3-(3-(4-(5,6,7,8-tetrahydro-1,8-naphthyridin-2-yl)butyl)cyclobutyl)propanoic acid (Diastereomer A)] |
| 6 nM | O=C(O)C[C@@H](c1ccc2c(c1)CCO2)N1CC(CCCCc2ccc3c(n2)NCCC3)C1=O (stereo partly shown) [Example 111] |
| 25 nM | COc1ccc([C@H](CC(=O)O)N2CC(CCCc3ccc4c(n3)NCCC4)C2=O)cn1 (single isomer, unassigned) [Example 181] |
| 1 nM | COc1ccc([C@H](CC(=O)O)NC(=O)C2CN(CCc3ccc4c(n3)NCCC4)C2)cn1 [Example 37] |
| 5.7 nM | COc1ccc(C(CC(=O)O)C2CC(NCCCc3ccc4c(n3)NCCC4)C2)cn1 (stereo not shown) [Example 125] |
| 7.1 nM | COc1ccc(C(CC(=O)O)CC(=O)N2CC(CCc3ccc4c(n3)NCCC4)C2)cc1F (stereo not shown) [Example 67] |
| 3.6 nM | COc1ccc([C@H](CC(=O)O)NC2CN(CCc3ccc4c(n3)NCCC4)C2)cn1 [Example 12, (S)-3-(6-Methoxypyridin-3-yl)-3-((1-(2-(5,6,7,8-tetrahydro-1,8-naphthyridin-2-yl)ethyl)azetidin-3-yl)amino)propanoic acid] |
| 3.9 nM | O=C(O)C[C@@H](c1ccc(F)c(F)c1)N1CC(CCCCc2ccc3c(n2)NCCC3)C1=O (stereo partly shown) [Example 112] |
| 2.4 nM | COc1ccc([C@H](CC(=O)O)N2CC(CCCCc3ccc4c(n3)NCCC4)C2=O)cn1 (stereo partly shown) [Example 68] |
| 2.2 nM | COc1ccc(C(CC(=O)O)N2CC3(CC(CCc4ccc5c(n4)NCCC5)C3)C2)cc1F (stereo not shown) [Example 204, 3-(3-fluoro-4-methoxyphenyl)-3-(6-(2-(5,6,7,8-tetrahydro-1,8-naphthyridin-2-yl)ethyl)-2-azaspiro[3.3]heptan-2-yl)propanoic acid] |
| 17 nM | COc1ccc([C@H](CC(=O)O)N2CC(CCCc3ccc4c(n3)NCCC4)C2=O)cc1F (single isomer, unassigned) [Example 180] |
| 12 nM | O=C(O)C[C@@H](c1ccc(F)c(F)c1)N1CC(CCCCc2ccc3c(n2)NCCC3)C1=O (stereo partly shown) [Example 113] |
| 28 nM | COc1ccc(C(CC(=O)O)C2(F)CN(CCCCc3ccc4c(n3)NCCC4)C2)cn1 (stereo not shown) [Example 122] |
| 0.8 nM | O=C(O)C[C@H](NC(=O)C1CN(CCc2ccc3c(n2)NCCC3)C1)c1cc(Cl)cc(Cl)c1 [Example 38] |
| 3.8 nM | COc1ccc(C(CC(=O)O)C2(F)CN(CCCCc3ccc4c(n3)NCCC4)C2)cc1F (stereo not shown) [Example 22, 3-(3-Fluoro-1-(4-(5,6,7,8-tetrahydro-1,8-naphthyridin-2-yl)butyl)azetidin-3-yl)-3-(3-fluoro-4-methoxyphenyl)propanoic acid] |
| 0.4 nM | COc1ccc([C@H](CC(=O)O)NC(=O)C2CN(CCc3ccc4c(n3)NCCC4)C2)cc1F [Example 42] |
| 170 nM | COc1ccc([C@@H](CC(=O)O)C2(F)CN(C(=O)CCCc3ccc4c(n3)NCCC4)C2)cn1 (single isomer, unassigned) [Example 18] |
| 102 nM | COc1ccc([C@H](CC(=O)O)N2CC(C)(CCCCc3ccc4c(n3)NCCC4)C2=O)cn1 (single isomer, unassigned) [Example 178] |
| 13 nM | COc1ccc([C@H](CC(=O)O)NC(=O)C2CC3(C2)CN(CCc2ccc4c(n2)NCCC4)C3)cn1 [Example 2, (S)-3-(6-Methoxypyridin-3-yl)-3-(2-(2-(5,6,7,8-tetrahydro-1,8-naphthyridin-2-yl)ethyl)-2-azaspiro[3.3]heptane-6-carboxamido)propanoic acid, 3TFA] |
